According to article PMC10683482, “Offsetting Low-Affinity Carbohydrate Binding with Covalency to Engage Sugar-Specific Proteins for Tumor-Immune Proximity Induction” (ACS Central Science, 2023):

Test system: human serum antirhamnose antibody (IgG and IgM)
Experiment: ELISA covalent engagement of serum anti-rhamnose antibody
Type: binding
Conditions: 2 μM compound, 2% human serum, 48 h; rhamnose 100 mM added after incubation
Method: Figure 2 Capacity of Rha-cARMs to specifically covalently engage monoclonal anti-23F and serum anti-rhamnose. A. Chemical structures of the molecules investigated. B. Assessment of covalent vs noncovalent (cARM/ARM) engagement of human serum antirhamnose antibody via an ELISA assay. Each ARM/cARM (2 μM) was incubated with 2% human serum for 48 h and subsequently incubated directly on a streptavidin ELISA plate. Recruitment was evaluated by the addition of anti-IgG or anti-IgM HRP-conjugated secondary antibody with subsequent chromogenic substrate addition. “Comp” represents the addition of competitor rhamnose (500 mM) during 48 h of incubation. “Quench” refers to the addition of competitor rhamnose (100 mM) prior to ELISA plate binding but after 48 h of reaction incubation. C. SDS-PAGE fluorescent image of anti-23F antibody covalently labeled by fluorophore substituted Rha-cARMs (6–8). A representative protein stain associated with each gel is included on the left side of the fluorescent gel images. In all cases, 2 μM anti-23F antibody is incubated with 4 μM cARM (2 equiv) for 24 h in PBS spiked with 10% human serum. Where noted, L-rhamnose (100 mM, Rha. C) was used during incubation as a competitor for specific covalent labeling. Where noted, a free fluoresceine competitor (2.5 mM, Fluor. C) was used to distinguish fluorescein-promoted covalent labeling from rhamnose-promoted. The darker background in gels corresponding to cARM 6, 7 is attributed to the differing capacity of free cARM-fluorophore (fluoroscein vs A647) to be retained in gel, as well as an alternative imaging channel (Cy2 for fluorescein, Cy5 for A647). […] D. Kinetic SDS-PAGE fluorescence imaging experiment to determine Rha-AI-cARM/anti-23F antibody labeling kinetics using A647-cARM (8). cARM 8 (2–100 μM) was incubated with anti-23F antibody (2 μM) for up to 4 h. A representative fluorescence gel image is included corresponding to compound 8 (50 μM) incubated with either anti-23F antibody or isotype human IgG. Densitometry analysis with ImageJ was used to quantify relative band intensities. […] The error is calculated by alternative fits of initial rates data (all within the linear labeling range).
Next, we tested if cARM tool compounds can selectively label endogenous human polyclonal antirhamnose antibodies via ELISA (4 α-O rhamnose or 5 α-S rhamnose) (Figure 2B). cARMs (4, 5) and noncovalent analog ARMs (1, 2) were incubated with 2% human serum for 48 h followed by addition to a streptavidin-ELISA plate. Antibody recruitment to the plate surface was measured via the addition of HRP-conjugated anti-IgG or anti-IgM secondary antibody, followed by a chromogenic substrate. […] In the absence of a competitor, we observed robust absorbance signal in samples incubated with cARM. […]

Structure (SMILES) | antibody binding signal, quench control
C[C@@H]1O[C@@H](OCc2cn(CCOCCNC(=O)OCCOCCOCCOCCOCCOCCOCCOCCNC(=O)CCCC[C@@H]3SC[C@@H]4NC(=O)N[C@@H]43)nn2)[C@H](O)[C@H](O)[C@H]1O [compound 1] | baseline signal
C[C@@H]1O[C@@H](SCc2cn(CCOCCNC(=O)OCCOCCOCCOCCOCCOCCOCCOCCNC(=O)CCCC[C@@H]3SC[C@@H]4NC(=O)N[C@@H]43)nn2)[C@H](O)[C@H](O)[C@H]1O [compound 2] | baseline signal
C[C@@H]1O[C@@H](OCc2cn(CCc3cn(C(=O)OCCOCCOCCOCCOCCOCCOCCOCCNC(=O)CCCC[C@@H]4SC[C@@H]5NC(=O)N[C@@H]54)cn3)nn2)[C@H](O)[C@H](O)[C@H]1O [compound 4] | significant antibody binding signal
